Source: US9198909B1, “Materials and methods for inhibiting mamalian S-nitrosoglutathione reductase” (Indiana University Research and Technology Corporation, priority 2007, dated 2015)

How the values were obtained:
π-ADH = target: T1, π-ADH (Homo sapiens, UniProt P08319); assay: ADH isozyme selectivity study: π-ADH; format: biochemical; conditions: about 5 μM inhibitor, pH 7.5, 1 mM NAD+, 35 mM ethanol
T1 construct: made in house; host or cells: E. coli
Experimental: (§1) Referring now to Table 2, briefly inhibition studies were performed in presence or absence of about 5 μM inhibitor. These studies were carried out at 25° C. in 50 mM potassium phosphate pH 7.5 including 0.1 mM EDTA. The enzymes activities were measured by following the changes in absorbance at 340 nm. The values show the percent reduction in the enzyme activity (from a minimum of two measurements) caused by the inhibitor. […] Studies with β2β2-, σσ-, π-ADH and involving compounds 5-8 were performed in 0.05% DMSO. Studies with GSNOR were performed in presence of 1% DMSO, except when compound 4 was the inhibitor. Studies with compound 4 were performed in 0.36% DMSO. DMSO at 0.36% inhibited β2β2-, σσ-, and π-ADH by 24, 18, and 9%, respectively. Studies with β2β2-ADH involved adding 3.5 μg of the enzyme to the assay mixture including 2 mM NAD^+, 1 mM ethanol and the inhibitor.
(§2) Studies with σσ-ADH involved adding 0.5 μg of enzyme to the assay mixture containing 2 mM NAD^+, 30 mM ethanol and the inhibitor. Studies with π-ADH involved adding 19.5 μg of the enzyme to the assay mixture including 1 mM NAD^+, 35 mM ethanol and the inhibitor. […]
(§3) Inhibition of the β2β2-, π-, and σ-ADH was evaluated by determining the inhibitory effect of GSNOR inhibitors on the rate of oxidation of ethanol by each of these ADH isozymes. […]

σ-ADH = target: T2, σ-ADH (Homo sapiens, UniProt P40394); assay: ADH isozyme selectivity study: σ-ADH; format: biochemical; conditions: about 5 μM inhibitor, pH 7.5, 2 mM NAD+, 30 mM ethanol
T2 construct: made in house; host or cells: E. coli
T2 sequence (P40394 whole entry): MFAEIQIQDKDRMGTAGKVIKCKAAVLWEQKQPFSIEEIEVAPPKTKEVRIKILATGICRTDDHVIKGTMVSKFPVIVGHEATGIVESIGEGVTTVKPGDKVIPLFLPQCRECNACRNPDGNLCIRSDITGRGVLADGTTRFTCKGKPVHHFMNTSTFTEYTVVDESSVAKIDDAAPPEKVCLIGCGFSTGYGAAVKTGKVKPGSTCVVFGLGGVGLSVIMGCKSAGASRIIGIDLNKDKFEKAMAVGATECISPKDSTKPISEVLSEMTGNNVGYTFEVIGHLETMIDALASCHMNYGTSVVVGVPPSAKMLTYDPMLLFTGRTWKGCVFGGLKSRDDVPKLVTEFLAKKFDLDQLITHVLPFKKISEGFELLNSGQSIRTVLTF
Experimental: as §1, §2, §3

GSNOR [1] = target: T3, GSNOR (Homo sapiens, UniProt P11766); assay: ADH isozyme selectivity study: GSNOR; format: biochemical; design: made in house; host or cells: E. coli; conditions: about 5 μM inhibitor, pH 7.5
Experimental: as §1
Target sequence in this assay (P11766 2-374 limits assumed): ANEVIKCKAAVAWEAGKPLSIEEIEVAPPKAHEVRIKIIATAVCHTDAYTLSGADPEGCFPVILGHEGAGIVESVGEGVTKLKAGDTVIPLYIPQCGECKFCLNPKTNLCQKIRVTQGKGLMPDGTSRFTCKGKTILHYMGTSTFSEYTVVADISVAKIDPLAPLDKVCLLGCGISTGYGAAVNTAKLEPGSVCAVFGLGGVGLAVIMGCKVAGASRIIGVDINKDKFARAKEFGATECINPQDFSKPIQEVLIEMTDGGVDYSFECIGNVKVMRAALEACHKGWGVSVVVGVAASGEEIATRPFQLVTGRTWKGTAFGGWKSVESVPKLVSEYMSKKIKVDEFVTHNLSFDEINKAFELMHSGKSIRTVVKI
Studies with σσ-ADH involved adding 0.5 μg of enzyme to the assay mixture containing 2 mM NAD^+, 30 mM ethanol and the inhibitor. Studies with π-ADH involved adding 19.5 μg of the enzyme to the assay mixture including 1 mM NAD^+, 35 mM ethanol and the inhibitor. Studies with GSNOR involved adding 0.1 μg of the enzyme to an assay mixture including 15 μM NADH, 5 μM GSNO and the inhibitor.

RAW 264.7 cells = assay: Nitroso species accumulation in RAW 264.7 cells (triiodide chemiluminescence); format: cell-based, rat
Experimental: Referring now to FIG. 3, briefly, RAW 264.7 cells were incubated with 500 μM GSNO alone (γ) or in presence of 33 μM Compound 6 (◯) or 7 (Δ) or 8 (▪). At indicated times or at 4 hr (in case of B), the cells were lysed and the lysate was analyzed for protein and nitroso species concentration by Bradford and chemiluminescence assay, respectively. For details, see Materials and methods. Data represents mean±SE (n=3−12).
RAW 264.7 cells were cultured in DMEM medium supplemented with 10% FBS, 200 U/ml of penicillin and 200 μg/mL of streptomycin. The cells were incubated at 37° C. in an atmosphere containing 5% CO2 and 95% air. For the experiments, 1-2×10^6 cells were plated in six-well plates a day before the experiment. On the day of the assay the medium was replaced with 3 ml of fresh medium and the cells were treated with compounds for a predetermined length of time. Following the incubation period, the cells were washed three times with PBS and scraped off the plate in 250 μl of lysis buffer (50 mM potassium phosphate pH 7.0 containing 50 mM NEM and 1 mM EDTA). Cells were lysed by sonication using a micro tip probe (three pulses of 30% duty cycle; 2 output control on a Fisher Sonicator). Cell debris was pelleted by centrifugation (10 min at 16,000 g) and the cell lysate was analyzed for protein concentration using the Bio-Rad dye-binding protein assay. The concentration of nitroso compounds in the cell lysate was determined using the triiodide based chemiluminescence method using a Sievers 280 nitric oxide analyzer. Briefly, cell lysates were treated with 15% v/v of a sulfanilamide solution (5% w/v in 0.2 M HCl) and kept at room temperature for 5 min to remove nitrite. The triodide mixture was prepared fresh every day as described earlier and kept at 60° C. in the reaction vessel. The concentration of nitroso species was derived from a standard curve generated using GSNO. For determining the amount of the small size nitroso compounds in the cell lysate, a 5 kDa-cutoff Amicon ultra filtration unit was used according to the supplier's instructions. The amount of s-nitrosothiols in the cell lysate was determined by treating initially passing the cell lysate through a microspin column and treating the eluate with 5 mM HgCl2 before determining the nitroso compound concentration using chemiluminescence. For some experiments the cells were pretreated with the compounds for 16 hours prior to the day of experiment.

GSNOR [2] = target: T3, GSNOR; assay: Dead-end inhibition studies of GSNOR; format: biochemical; design: made in house; host or cells: E. coli; conditions: pH 7.5, 25° C., GSNO held at 10 μM
Experimental: Referring now to Table 3, inhibition experiments were performed at 25° C. in 50 mM potassium phosphate (pH 7.5) including 0.1 mM EDTA. A minimum of five concentrations of the varied substrate and three inhibitor concentrations were used for each experiment. NADH and GSNO concentrations were held at 15 or 10 μM, respectively when present as a constant substrate in the assay. The Kis and Kii values are respectively the slope and intercept inhibition constants and are listed along with their associated standard errors. All data were fit to a competitive (C), noncompetitive (NC), or uncompetitive (UC) inhibition models. The type of inhibition shown in the table represents the best fit of the data to the given model as judged from F statistics analysis. […] The dissociation constant was measured at 25° C. in 50 mM potassium phosphate pH 7.5. Each KD value is an average of three independent experiments and is shown with the associated standard error.
Inhibition experiments with the GSNOR inhibitors were conducted at 25° C. in 3 ml of 50 mM potassium phosphate (pH 7.5) containing 0.1 mM EDTA. […] A minimum of three inhibitor concentrations were used in these assays and the rate of NADH and GSNO consumption was determined spectrophotometrically by following change in absorbance at 340 nm. […]
Target sequence in this assay (P11766 2-374 limits assumed): as above

GSNOR•NADH complex [3] = target: T4, GSNOR•NADH complex (Homo sapiens, UniProt P11766); assay: Fluorescence equilibrium binding to GSNOR•NADH complex; conditions: 1.7 μM NADH, 2 μM GSNOR, 50 μM compound 8
T4 construct: made in house; host or cells: E. coli
T4 sequence (P11766 2-374 limits assumed, one chain of several): as the sequence (P11766 2-374 limits assumed) above
Experimental: Referring now to FIG. 2, (A) Changes in the fluorescence of NADH (curve a) upon sequential addition of GSNOR (curve b) and compound 8 (curve c). To a solution of 1.7 μM NADH were added 2 μM GSNOR and 50 μM compound 8 in sequence and the fluorescence of the solution measured each time (λexc=350 nm; λemm=375-550 nm); (B) Changes in the fluorescence of NADH (curve a) upon sequential addition of GSNOR (curve b), 12-HDDA (curve c) and compound 8 (curve d). To a solution of 1.7 μM NADH were added 2 μM GSNOR, 810 μM 12-HDDA and 50 μM compound 8 in sequence and the fluorescence measured each time (λexc=350 nm; λemm=375-550 nm); (C) Binding of compound 8 to GSNOR•NADH complex. The change in fluorescence of a 1.7 μM NADH and 2 μM GSNOR mixture (λexc=350 nm; λemm=455 nm) with increasing concentrations of compound 8 was fitted to a single site binding model (equation 1; see materials and methods) using the Graphpad Prizm 4. All of the fluorescence studies were conducted at room temperature in 50 mM potassium phosphate pH 7.5.
Referring now to Table 3, inhibition experiments were performed at 25° C. in 50 mM potassium phosphate (pH 7.5) including 0.1 mM EDTA. […] The dissociation constant was measured at 25° C. in 50 mM potassium phosphate pH 7.5. […]
Fluorescence studies were conducted in 50 mM potassium phosphate pH 7.5, at room temperature using a Fluoromax-2 fluorescence spectrometer (Instruments S.A., Inc., Edison, N.J.). The equilibrium dissociation constant of GSNOR inhibitors was determined by measuring the changes in the fluorescence of GSNOR bound NADH (λexc=350 nm; λemm=455 nm) upon the addition of inhibitor. […] The decrease in fluorescence at 455 nm with each addition of inhibitor was plotted against the final concentration of inhibitor and the data were fitted to equation 1 using nonlinear regression to obtain the dissociation constant of the inhibitor for GSNOR-NADH complex,
[formula] In equation 1, ΔF is the change in the fluorescence at 455 nm upon the addition of inhibitor. ΔFM is the maximum fluorescence change that was obtained from curve fitting. […]

GSNOR•NADH complex [4] = target: T4, GSNOR•NADH complex; conditions: alcohol substrate, abortive ternary complex; read-out: dissociation constant for the GSNOR•NADH complex; cited from earlier work
GSNOR [5] = target: T3, GSNOR; conditions: read-out: KD of NADH for GSNOR; cited from earlier work
Target sequence in this assay (P11766 whole entry): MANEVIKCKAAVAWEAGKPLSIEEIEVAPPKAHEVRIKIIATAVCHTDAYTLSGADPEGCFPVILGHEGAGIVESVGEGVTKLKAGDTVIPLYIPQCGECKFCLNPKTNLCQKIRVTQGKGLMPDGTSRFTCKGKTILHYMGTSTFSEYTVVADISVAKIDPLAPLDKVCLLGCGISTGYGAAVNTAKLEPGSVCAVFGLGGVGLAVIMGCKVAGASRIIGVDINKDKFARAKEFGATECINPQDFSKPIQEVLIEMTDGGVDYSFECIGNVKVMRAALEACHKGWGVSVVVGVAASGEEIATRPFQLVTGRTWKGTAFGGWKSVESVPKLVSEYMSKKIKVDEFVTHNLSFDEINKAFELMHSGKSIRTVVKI

GSNOR [6] = target: T3, GSNOR; assay: GSNOR inhibition at pH 7.5 (GSNO, NADH); format: biochemical; design: made in house; host or cells: E. coli; conditions: Table 1; pH not stated
Experimental: Referring now to Table 1, inhibition was studied at pH 10. These assays were performed in 0.1 M sodium glycine containing 1 mM octanol, 1 mM NAD^+, 0.1 mM EDTA and 50 μM inhibitor. Inhibition studies at pH 7.5 were performed in 50 mM potassium phosphate pH 7.5 that included 15 μM NADH, 10 μM GSNO, 0.1 mM EDTA and 50 μM inhibitor. The data file to a model consisted with partial inhibition and a hill coefficient of 2.4 in the inhibition curve. The screening for GSNOR inhibitors was performed using a library of 60,000 compounds from ChemDiv Inc in the Chemical Genomics Core facility at Indiana University. Screening was conducted in 384 well plates and involved incubating GSNOR with 12.5 μM compound, 1 mM each of NAD^+ and octanol in 0.1 M sodium glycine pH 10. Enzyme activity was determined by measuring the rate of production of NADH spectrophotometrically at 340 nm. Inhibition of GSNOR was calculated from the ratio of enzyme activity in the presence of compounds to that in no compound controls performed on the same assay plate. Following their identification from the high-throughput screening, the GSNOR inhibitory properties of the initial hits were confirmed at the pH 10 using 12-hydroxydodecanoic acid as the substrate and at pH 7.5 using GSNO as the substrate (see the brief description of Table 1 for details on how the assay was carried out.)
Target sequence in this assay (P11766 2-374 limits assumed): as the sequence (P11766 2-374 limits assumed) above

GSNOR [7] = target: T3, GSNOR; assay: GSNOR substrate kinetics with octanol; format: biochemical; conditions: octanol versus GSNO
Experimental: GSNOR is an alcohol dehydrogenases and like other members of ADH family, is capable of oxidizing and reducing primary alcohols and aldehydes with the help of a molecule of NAD(H). Octanol was chosen as the substrate in the initial screening assay as it is bulky like GSNO, but has 200-fold higher KM value (1 mM) and a kcat value (200 min-1) that is more than 2 order of magnitude lower than that of GSNO. This allows the initial velocity conditions to prevail for a period up to 10 min (data not shown) and it enables conducting a large number of concurrent assays in a384 well plate format. The pH of the assay was adjusted to pH 10 in order to get significant rate of oxidation of octanol in the absence of compounds. The screening for GSNOR inhibitors was performed in the presence of saturating concentration of NAD^+ and an un-saturating concentration of octanol thereby increase the probability of identifying compounds that bind, only or primarily in the GSNO binding site of GSNOR. This was deemed desirable as there are many dehydrogenases inside the cells and compounds binding in the coenzyme binding site are more likely to be nonspecific inhibitors of GSNOR, than compounds that bind primarily to the form of GSNOR that binds GSNO.
Target sequence in this assay (P11766 whole entry): as the sequence (P11766 whole entry) above

T1 sequence (P08319 whole entry): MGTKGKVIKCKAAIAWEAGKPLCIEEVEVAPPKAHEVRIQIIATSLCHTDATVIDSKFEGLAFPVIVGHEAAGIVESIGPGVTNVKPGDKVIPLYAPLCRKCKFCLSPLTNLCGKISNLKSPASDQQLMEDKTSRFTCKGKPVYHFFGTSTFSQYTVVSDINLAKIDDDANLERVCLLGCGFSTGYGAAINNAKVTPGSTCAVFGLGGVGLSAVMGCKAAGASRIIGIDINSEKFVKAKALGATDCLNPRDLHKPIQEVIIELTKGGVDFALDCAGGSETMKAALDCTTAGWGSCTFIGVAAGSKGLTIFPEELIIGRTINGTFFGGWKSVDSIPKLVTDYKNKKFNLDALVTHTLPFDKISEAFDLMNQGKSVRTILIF

With `Cc1ccc(C)c(-c2csc(-c3cc4ccc(O)cc4oc3=O)n2)c1` [Compound 4] the “inhibition of π-ADH” value (π-ADH) was “inhibited π-ADH more than GSNOR”.
For `CC(=O)Oc1ccc(C2Nc3ccc(C(=O)O)cc3C3C=CCC32)c(OC(C)=O)c1` (stereo not shown) [Compound 5], the “inhibition of σ-ADH” value (σ-ADH) was “significant inhibition” and the “inhibition of GSNOR (in words)” value (GSNOR [1]) was “modestly good inhibitor”.
For `CC(=O)c1ccc(-n2c(CCC(=O)O)ccc2-c2ccccc2)cc1` [Compound 6], the “nitrosylation, fold higher than Compound 7” value (RAW 264.7 cells; 33 μM initial concentration, 500 μM GSNO, 4 hr) was 3 fold, the “decrease in nitrosylated species relative to amounts at 4 hours” value (RAW 264.7 cells; exposure up to 24 hours, data not shown) was 80% and the “type of inhibition against varied NADH” value (GSNOR [2]) was “uncompetitive”. The “effect on fluorescence of GSNOR bound NADH” value (GSNOR•NADH complex [3]) was “quenched the NADH fluorescence”.
For `O=C(O)CCCCCCCCCCCO` [Compound 12-HDDA, 12-hydroxydodecanoic acid], the Kd (GSNOR•NADH complex [4]) is given as 170 µM.
With `N[C@@H](CCC(=O)N[C@@H](CSN=O)C(=O)NCC(=O)O)C(=O)O` [GSNO, s-nitrosoglutathione] the “buildup of nitrosylated compounds in cells” value (RAW 264.7 cells; 500 μM GSNO alone) was “significant buildup” and the “time to equilibrium level of nitrosylated compounds” value (RAW 264.7 cells; 500 μM GSNO alone) was no more than 1 h.
In the case of `NC(=O)C1=CN([C@@H]2O[C@H](COP(=O)(O)OP(=O)(O)OC[C@H]3O[C@@H](n4cnc5c(N)ncnc54)[C@H](O)[C@@H]3O)[C@@H](O)[C@H]2O)C=CC1` [NADH], the Kd (GSNOR [5]) is given as 0.05 µM.
With `O=C(O)c1ccc2c(c1)C1C=CCC1C(c1ccc(O)cc1O)N2` (stereo not shown) [hydrolyzed form of compound 5] the “inhibition of GSNOR compared with compound 5 (ester)” value (GSNOR [6]) was “three fold higher inhibition”.
In the case of `CCCCCCCCO` [octanol], the “KM value, fold higher than GSNO” value (GSNOR [7]) is reported as 200 fold.
